In general, EC50 refers to the concentration that produces a half-maximal response. In general, inhibition refers to the share of the control response that was lost under treatment. Broadly, the CC50 is the concentration at which the toxic effect on the cells reaches its halfway point.

Data on 8 compounds can be found in ChEMBL document CHEMBL3779806, “5-Carba-pterocarpens: A new scaffold with anti-HCV activity” (Eur J Med Chem, 2016).

Active and inactive are the calls of the source. No cut-off for these calls is given here.

Data set [1] relates to Hepatitis C virus. As to the kind of experiment: Antiviral activity against HCV genotype 2a infected in Huh7.5-FGR-JC1-Rluc2A cells assessed as inhibition of viral RNA replication after 48 hrs by luciferase reporter gene assay. The data set is classed as functional, organism-based, Hepacivirus hominis. In general terms: A reporter such as luciferase makes a cellular process visible.

The nature of data set [2]: Cytotoxicity against hamster BHK cells assessed as cell viability at 50 uM after 40 hrs by luciferase reporter gene assay relative to control. The data set is classed as cell-based, Mesocricetus auratus. Particulars: read-out: Activity.
Data set [3] concerns Hepacivirus hominis. The data set can be described thus: Inhibition of HCV NS5B RNA dependent RNA polymerase activity infected in BHK-NS5B-FRLuc cells at 50 uM incubated for 40 hrs by dual luciferase reporter gene assay relative to control. The data set is classed as cell-based.
For data set [4], the system named is Hepatitis C virus. As to the kind of experiment: Antiviral activity against HCV genotype 2a infected in Huh7.5-FGR-JC1-Rluc2A cells assessed as inhibition of viral RNA replication at 50 uM after 48 hrs by luciferase reporter gene assay relative to control. It counts as functional, Hepacivirus hominis.
The subject of data set [5] is Hepatitis C virus. The data set can be described thus: Antiviral activity against HCV genotype 1b infected in Huh7/Rep-Feo1b cells assessed as inhibition of viral RNA replication at 50 uM after 48 hrs by luciferase reporter gene assay relative to control. The data set is classed as functional, Hepacivirus hominis. Particulars: Huh-7, 48 h.
Data set [6] is described as follows: Selectivity index, ratio of CC50 for human Huh7.5 cells to EC50 for HCV genotype 1b infected in Huh7/Rep-Feo1b cells. Also on record: species or system Huh-7.
Data set [7] deals with Hepacivirus hominis. As to the kind of experiment: Inhibition of recombinant HCV NS5B RNA dependent RNA polymerase activity assessed as reduction in [alpha-32P]UTP incorporation using poly(rA)-U12 as template/primer at 50 uM incubated for 1 hr by liquid scintillation counting method relative to control.
Data set [8] is described as follows: Cytotoxicity against human Huh7.5 cells assessed as reduction in cell viability after 48 hrs by MTS assay. The data set is classed as cell-based, Huh-7. On the technique in general: Tetrazolium dyes change colour on reduction, which living cells bring about.
Data set [9] in a line: Selectivity index, ratio of CC50 for human Huh7.5 cells to EC50 for HCV genotype 2a infected in Huh7.5-FGR-JC1-Rluc2A cells. On the set-up: species or system Huh-7.
The subject of data set [10] is Hepatitis C virus. The data set can be described thus: Antiviral activity against HCV genotype 1b infected in Huh7/Rep-Feo1b cells assessed as inhibition of viral RNA replication after 48 hrs by luciferase reporter gene assay. Conditions: Huh-7, 48 h. It counts as functional, organism-based, Hepacivirus hominis.

On to `Oc1ccc2c(c1)CCc1c-2oc2cc(O)ccc12`, for which the EC50 with Hepatitis C virus [1] was 1.9 µM; with Hepatitis C virus [10], 12.3 µM. For the same compound, in [2], the viability at 40 h, 50 µM is ≥ 80%. In addition, the inhibition result in the data set with Hepacivirus hominis [3] and in the data set on Hepacivirus hominis [7] was “inactive” in each case. The inhibition at 50 µM in the data set on Hepatitis C virus [4] was 99.6%; with Hepatitis C virus [5], 98.1%. The “Ratio CC50/EC50” value was found to be 6.8 in [6] and 44.4 in data set [9]. Also, in data set [8], the CC50 at 48 h turned out to be 84.5 µM.
As for `Oc1ccc2c3c(oc2c1)-c1cc(O)c(O)cc1CC3`, the results for the concentration giving a half-maximal response (EC50) in the data set with Hepatitis C virus [1] and with Hepatitis C virus [10] were 6.1 µM and 5.5 µM, respectively. The viability at 40 h, 50 µM in data set [2] is ≥ 80%. The inhibition entry with Hepacivirus hominis [3] and with Hepacivirus hominis [7] was “inactive” each time. The inhibition at 50 µM was found to be 96.9% with Hepatitis C virus [4] and 98.6% in the data set with Hepatitis C virus [5]. Besides, the “Ratio CC50/EC50” value came to 20.9 in [6] and 18.8 in [9]. The cytotoxic concentration (CC50) at 48 h in data set [8] was determined as 115 µM.
Regarding `COc1ccc2c(c1)CCc1c-2oc2cc(O)ccc12`, the half-maximal effective concentration (EC50) in the data set on Hepatitis C virus [1] was determined as 1.5 µM; in the data set on Hepatitis C virus [10], 19.9 µM. In addition, the viability at 40 h, 50 µM in [2] is ≥ 80%. In addition, the inhibition in the data set with Hepacivirus hominis [3] is 37%; in the data set on Hepacivirus hominis [7], 36.2%. Also, the inhibition at 50 µM came to 99.8% in the data set with Hepatitis C virus [4] and 97.9% in the data set on Hepatitis C virus [5]. Moreover, the “Ratio CC50/EC50” value came to 5.3 in [6] and 70.6 in data set [9]. In addition, the CC50 at 48 h in [8] is 106 µM.
As to `c1ccc2c(c1)CCc1c-2oc2ccccc12`, the half-maximal effective concentration (EC50) in the data set on Hepatitis C virus [1] was 15.3 µM; in the data set on Hepatitis C virus [10], 40.7 µM. In addition, in [2], the viability at 40 h, 50 µM was ≥ 80%. For the same compound, the inhibition entry in the data set with Hepacivirus hominis [3] and in the data set with Hepacivirus hominis [7] was “inactive” throughout. For the same compound, the inhibition at 50 µM in the data set on Hepatitis C virus [4] was 86.5%; with Hepatitis C virus [5] it was 50.7%. The “Ratio CC50/EC50” value in [6] is >4.9; in data set [9], >13. Besides, the CC50 at 48 h in data set [8] was > 200 µM.
`Oc1ccc2c(c1)-c1oc3ccccc3c1CC2`: the figures for the 50% effective concentration (EC50) in the data set with Hepatitis C virus [1] and with Hepatitis C virus [10] were 2.3 µM and 27.9 µM, respectively. In addition, the viability at 40 h, 50 µM in data set [2] is ≥ 80%. For the same compound, the inhibition was found to be 39.4% in the data set with Hepacivirus hominis [3] and 38.5% with Hepacivirus hominis [7]. Besides, the figures for the inhibition at 50 µM with Hepatitis C virus [4] and in the data set with Hepatitis C virus [5] were 98.4% and 95.1%, respectively. Besides, the entries for the “Ratio CC50/EC50” value in [6] and in data set [9] were 3.5 and 42.1, respectively. Further, in data set [8], the cytotoxic concentration (CC50) at 48 h came to 96.8 µM.
On to `Oc1ccc2c3c(oc2c1)-c1cccc(O)c1CC3`, for which the EC50 with Hepatitis C virus [1] was 2.4 µM; with Hepatitis C virus [10], 5.9 µM. Further, the viability at 40 h, 50 µM in data set [2] is ≥ 80%. In addition, the inhibition in the data set on Hepacivirus hominis [3] was found to be 33.3%; in the data set with Hepacivirus hominis [7] it was 38%. For the same compound, the figures for the inhibition at 50 µM with Hepatitis C virus [4] and in the data set on Hepatitis C virus [5] were 99.7% and 96.7%, respectively. The “Ratio CC50/EC50” value in data set [6] is 10.1; in [9], 24.7. Moreover, the CC50 at 48 h in data set [8] is 59.5 µM.
For the compound `Oc1ccc2c(c1)-c1oc3cc(O)ccc3c1CC2`, the EC50 with Hepatitis C virus [1] was found to be 6 µM. Moreover, the viability at 40 h, 50 µM in [2] is ≥ 80%. Also, the inhibition is 36.1% with Hepacivirus hominis [3] and 33.1% in the data set on Hepacivirus hominis [7]. Besides, the inhibition at 50 µM in the data set on Hepatitis C virus [4] was found to be 97.8%; in the data set with Hepatitis C virus [5] it was 49.3%. In [8], the CC50 at 48 h stood at 157 µM. Also, in data set [9], the “Ratio CC50/EC50” value was determined as 26.1.
For the compound `Oc1ccc2c3c(oc2c1)-c1ccccc1CC3`, the figures for the EC50 in the data set with Hepatitis C virus [1] and in the data set with Hepatitis C virus [10] were 5.7 µM and 13.9 µM, respectively. The viability at 40 h, 50 µM in [2] is ≥ 80%. Moreover, the inhibition entry with Hepacivirus hominis [3] and in the data set on Hepacivirus hominis [7] was “inactive” throughout. The inhibition at 50 µM in the data set with Hepatitis C virus [4] stood at 97.2%; with Hepatitis C virus [5] it was 90.1%. The figures for the “Ratio CC50/EC50” value in data set [6] and in data set [9] were 7.2 and 15.8, respectively. For the same compound, in data set [8], the 50% cytotoxic concentration (CC50) at 48 h was found to be 99.9 µM.
